This is an account of results in patent US8568736B2, “Polypeptide derivatives of parathyroid hormone (PTH)” (The General Hospital Corporation, priority 1999, dated 2013).

Experiment [1] deals with T1, truncated human PTH-1 receptor, hΔNt (Homo sapiens, UniProt Q03431).
T1 construct: expressed in transfected cells; host or cells: COS-7, transient, pcDNA-1 plasmid derived from HK-WT
T1 sequence (Q03431 with tags, fused parts or gaps limits assumed): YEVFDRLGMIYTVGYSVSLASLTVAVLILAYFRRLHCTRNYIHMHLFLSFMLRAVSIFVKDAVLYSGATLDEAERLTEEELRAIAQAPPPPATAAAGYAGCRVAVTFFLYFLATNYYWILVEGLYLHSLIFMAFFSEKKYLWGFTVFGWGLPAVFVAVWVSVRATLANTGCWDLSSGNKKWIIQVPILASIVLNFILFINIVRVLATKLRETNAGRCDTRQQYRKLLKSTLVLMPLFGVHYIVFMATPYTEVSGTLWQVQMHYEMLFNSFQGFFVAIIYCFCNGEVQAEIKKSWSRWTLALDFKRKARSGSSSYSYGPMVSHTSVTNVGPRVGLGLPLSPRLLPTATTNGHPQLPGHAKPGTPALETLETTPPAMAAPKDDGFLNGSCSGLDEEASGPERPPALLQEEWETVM
The experiment in a line: cAMP stimulation in COS-7 cells transiently transfected with truncated receptor hDeINt. Format: cell-based. The conditions noted are these: for Emax: hDeINt, Emax constrained to peptide #7 (20 μM) response. How it is done:
COS-7 cells were transfected in 24-well plates when the cells were 85 to 95% of confluency using 200 ng of plasmid DNA that was purified by cesium chloride/ethidium bromide gradient centrifugation for each well. Assays were conducted 72 to 96 hours after transfection.
(§1) Stimulation of cells with peptide analogs was performed in 24-well plates. Cells were rinsed with 0.5 mL of binding buffer and treated with 200 μL of cAMP assay buffer (Dulbecco's modified Eagle's medium containing 2 mM 3-isobutyl-1-methylxanthine, 1 mg/mL bovine serum albumin, 35 mM Hepes-NaOH, pH 7.4) and 100 μL of binding buffer containing varying amounts of peptide analog (final volume=300 μL). The medium was removed after incubation for 1 h at room temperature, and the cells were frozen (−80° C.), lysed with 0.5 mL 50 mM HCl, and refrozen (−80° C.). The cAMP content of the diluted lysate was determined by radioimmunoassay. Where possible, cAMP EC50 and Maximum response values were determined using nonlinear regression (see below).
All calculations were performed using Microsoft Excel. Nonlinear regression analysis of cAMP stimulation data was performed using parameters, defined as the Minimum, Maximum, Emax, midpoint (EC50), and slope of the response curve. The predicted response (yp) for a given dose (x) of peptide was calculated using the following equation: yp=Min+[(Max−Min)/(1+(EC50/x)^slope)]. […] The statistical significance between two data sets was determined using a one-tailed Student's t-test, assuming unequal variances for the two sets.

The next experiment concerns the target T2, hPTH-2 Receptor (Homo sapiens, UniProt P49190).
T2 construct: expressed in transfected cells; host or cells: LLC-PK1 porcine kidney cells (clone given as hPR2-20, hPR2-22, LLC-P2R-22 or P2R-22)
The experiment in a line: cAMP stimulation in LLC-P2R-22 cells (LLC-PK1 stably transfected with hPTH-2 receptor). Format: cell-based. To be noted: for Emax / EC50 Log M: LLC-P2R-22 cells (hPTH-2 Receptor).
Source text: Stably transfected derivatives of the porcine kidney cell line LLC-PK1, HKRK-B7 (Takasu, H., et al., J. Bone Miner. Res. 14:11-20 (1999)) and hPR2-20, express the human PTH-1 and human PTH-2 receptors respectively. The HKRK-B7 LLC-PK1 cell line expresses the hPTH-1 receptor at ˜1×10^6 receptors/cell (Takasu, H., et al., J. Bone Miner. Res. 14:11-20 (1999)), and the hPR2-22 LLC-PK1 cell line expresses the hPTH-2 receptor at ˜0.8×10^6 receptors/cell (provided by H. Takasu and F. R. Bringhurst, Endocrine Unit, Massachusetts General Hospital).
as §1
Intracellular cAMP accumulation may be measured as described by Abou-Samra et al., J. Biol. Chem. 262:1129, 1986) or other methods known to those of skill in the art. Intracellular cAMP is extracted by thawing the cells in 1 ml of 50 mM HCl and analyzed by a specific radioimmunoassay using an anti-cAMP antibody (e.g., Sigma, St. Louis, Mo.). A cAMP analog (2′-O-monosuccinyl-adenosine 3′:5′-cyclic monophosphate tyrosyl methyl ester, obtained from Sigma) which is used as a tracer for cAMP is iodinated by the chloramine T method. Free iodine is removed by adsorbing the iodinated cAMP analog onto a C18 Sep-pak cartridge (Waters, Milford, Mass.). After washing with dH2O, the iodinated cAMP analog is eluted from the Sep-pak Cartridge with 40% acetonitrille (ACN) and 0.1% trifluoroacetic acid (TFA). The iodinated cAMP analog is lyophilized, reconstituted in 1 ml 0.1% TFA, and injected into a C18 reverse phase HPLC column (Waters). The column is equilibrated with 10% ACN in 0.1% TFA, and eluted with gradient of 10-30% ACN in 0.1% TFA. This allows separation of the mono-iodinated cAMP analog from the non-iodinated cAMP analog. The tracer is stable for up to 4 months when stored at −20° C. The standard used for the assay, adenosine 3′:5′-cyclic monophosphate, is purchased from Sigma. Samples (1-10 µl of HCl extracts) or standards (0.04-100 fmol/tube) are diluted in 50 mM Na-acetate (pH 5.5), and acetylated with 10 μl of mixture of triethylamine and acetic anhydride (2:1 vol:vol). After acetylation, cAMP antiserum (100 μl) is added from a stock solution (1:4000) made in PBS (pH 7.4), 5 mM EDTA and 1% normal rabbit serum. The tracer is diluted in PBS (pH 7.4) with 0.1% BSA, and added (20,000 cpm/tube). The assay is incubated at 4° C. overnight. The bound tracer is precipitated by adding 100 μl of goat anti-rabbit antiserum (1:20 in PBS) and 1 ml of 7% polyethyleneglycol (MW 5000-6000), centrifuging at 2000 rpm for 30 min. at 4° C. The supernatant is removed and the bound radioactivity is counted in a gamma-counter (Micromedic). To compute the cAMP data, logit calculations were performed in Excel spreadsheets. Typically, the assay sensitivity is 0.1 fmol/tube, and the standard concentration that displaces 50% of tracer is 5 fmol/tube.
All calculations were performed using Microsoft Excel. Nonlinear regression analysis of cAMP stimulation data was performed using parameters, defined as the Minimum, Maximum, Emax, midpoint (EC50), and slope of the response curve. The predicted response (yp) for a given dose (x) of peptide was calculated using the following equation: yp=Min+[(Max−Min)/(1+(EC50/x)^slope)]. […]

The mark [2] stands for this setting: COS-7 cells, hDeINt truncated receptor, cAMP, read-out: EC50.
Setting [3] is: LLC-PK1 cells expressing PTH-2 receptor, cAMP.

Read-outs that look alike come from different tables or passages of the source. No end group written: not given here.

T2 sequence (P49190 25-550): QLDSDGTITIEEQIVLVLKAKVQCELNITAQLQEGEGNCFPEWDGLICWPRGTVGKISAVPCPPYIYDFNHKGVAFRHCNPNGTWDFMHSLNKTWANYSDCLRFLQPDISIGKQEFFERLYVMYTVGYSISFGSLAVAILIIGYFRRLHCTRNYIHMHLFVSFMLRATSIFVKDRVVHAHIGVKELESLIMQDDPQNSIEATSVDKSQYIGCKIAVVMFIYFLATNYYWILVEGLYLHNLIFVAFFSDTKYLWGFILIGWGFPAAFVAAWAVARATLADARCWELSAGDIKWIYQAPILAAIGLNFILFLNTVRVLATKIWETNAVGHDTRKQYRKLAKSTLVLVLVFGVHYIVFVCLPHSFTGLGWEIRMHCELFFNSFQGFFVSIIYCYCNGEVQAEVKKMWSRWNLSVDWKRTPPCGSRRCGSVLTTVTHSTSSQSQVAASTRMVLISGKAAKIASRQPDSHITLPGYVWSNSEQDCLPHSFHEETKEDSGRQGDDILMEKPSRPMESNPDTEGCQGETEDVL

For the compound `CCCC[C@H](NC(=O)[C@H](CCCNC(=N)N)NC(=O)[C@H](CCC(=O)O)NC(=O)[C@@H](NC(=O)[C@H](CO)NC(=O)[C@H](C)NC(=O)[C@H](CC(C)C)NC(=O)[C@H](Cc1c[nH]cn1)NC(=O)[C@H](CCCCN)NC(=O)CNC(=O)[C@H](CC(C)C)NC(=O)[C@H](CC(N)=O)NC(=O)[C@H](Cc1c[nH]cn1)NC(=O)[C@H](CCCC)NC(=O)[C@H](CC(C)C)NC(=O)[C@H](CCC(N)=O)NC(=O)[C@@H](NC(=O)[C@H](CCC(=O)O)NC(=O)[C@H](CO)NC(=O)[C@@H](NC(=O)[C@H](C)N)C(C)C)[C@@H](C)CC)C(C)C)C(=O)N[C@@H](CCC(N)=O)C(=O)N[C@@H](Cc1c[nH]c2ccccc12)C(=O)N[C@@H](CC(C)C)C(=O)N[C@@H](CCCNC(=N)N)C(=O)N[C@@H](CCCCN)C(=O)N[C@@H](CCCCN)C(=O)N[C@@H](CC(C)C)C(=O)N[C@@H](CCC(N)=O)C(=O)N[C@@H](CC(=O)O)C(=O)N[C@H](C(=O)N[C@@H](Cc1c[nH]cn1)C(=O)N[C@@H](CC(N)=O)C(=O)N[C@@H](Cc1ccc(O)cc1)C(N)=O)C(C)C` [[Nle8, 21, Y34]rPTH(1-34), [Nle^8,21,Tyr^34]-rPTH(1-34)NH2, reference compound], the Emax in experiment [1] (COS-7 cells) is reported as 243 ± 63 picomole/well; at hPTH-2 Receptor it was 744 ± 48 picomole/well.

“AVAEIQLMHAR-NH2 [compound 6, AlaValAlaGluIleGlnLeuMetHisAlaArg-amide]”: in experiment [1] (setting [2]), the EC50 was 27 ± 12.9 µM. Besides, the Emax in experiment [1] (COS-7 cells) turned out to be 243 ± 63 picomole/well. The “EC50 Log M” value on hPTH-2 Receptor (cAMP) is given as “weakly”.

Regarding “AVAEIQLMHARAKH-NH2 [Peptide #1, AlaValAlaGluIleGlnLeuMetHisAlaArgAlaLysHis-amide]”, in experiment [1] (setting [2]), the EC50 is 2.37 ± 1.06 µM. In experiment [1] (COS-7 cells), this compound showed an Emax of 250 ± 61 picomole/well. Further, the “fold more potent than native PTH(1-14)” value in experiment [1] (truncated hPTH-1 receptor lacking most of the amino-terminal domain) turned out to be 100 fold. On hPTH-2 Receptor, this compound came in with an Emax of 292 ± 100 picomole/well. In addition, on hPTH-2 Receptor (setting [3]), the “potency relative to PTH(1-34)” value is on record as “four to five orders of magnitude weaker” and the “stimulation of the PTH-2 receptor (in words)” value is given as “active”.

For “AVAEIQLMHARAKHLNSMERVEWLRKKLQDVHNY-NH2 [Peptide #7]”, the EC50 in experiment [1] is 0.28 ± 0.16 µM. The “potency relative to rPTH(1-34) or hPTH(1-34) (in words)” value in experiment [1] (COS-7 cells expressing hΔNt) is listed as “dramatically more potent”. Further, the Emax in experiment [1] (COS-7 cells) worked out at 251 ± 39 picomole/well; at hPTH-2 Receptor, 677 picomole/well.

Consider “AVSEIQLMHNLGKH-NH2 [native rPTH(1-14), AVSEIQLMHNLGKH, reference compound]”, for which the EC50 in experiment [1] (setting [2]) came out at 313 ± 121 µM. In addition, the Emax in experiment [1] (COS-7 cells) came out at 222 ± 31 picomole/well. Also, the “EC50 Log M” value on hPTH-2 Receptor (cAMP) was “inactive”. Further, the “stimulation of the PTH-2 receptor (in words)” value on hPTH-2 Receptor (setting [3]) was “did not stimulate”.

As usually defined, the EC50 is the concentration that produces a half-maximal response.
